Reference: patent US8178506B2, “Oligomeric compounds and compositions for use in modulation of small non-coding RNAs” (Regulus Therapeutics Inc., priority 2003, dated 2012)

Experiments:
[1] = test system: mir-143 binding site in 3′-UTR of ERK5; test: pGL3-ERK5-3′UTR luciferase assays in HeLa cells; format: cell-based, human; conditions: for luciferase expression: HeLa cells, 24 hours
Method: (§1) An expression system based on the pGL3-Control (Promega Corp., Madison Wis.) reporter vector and comprising predicted miRNA binding sites was used in transient transfections of HeLa cells with plasmids expressing oligomeric compounds mimicking miRNAs, pre-miRNAs or pri-miRNAs in order to assess the ability of these miRNA mimics to bind and regulate the expression of the luciferase reporter. The effect of increasing the copy number of the miRNA-binding site in the target was also tested by including multiple binding sites in artificial reporter constructs. It is understood that the presence of multiple miRNA-binding sites in a target can include binding sites for different miRNAs.
(§2) The following reporter plasmids were constructed by cloning the specified fragment into the XbaI site of the pGL3-control plasmid, placing the potential miRNA-binding site in the 3′-UTR of the luciferase reporter: The reporter plasmid pGL3-bulge(×3) contains three contiguous copies of the sequence ([…]; herein incorporated as SEQ ID NO: 874) which represents a sequence complementary to the mir-143 miRNA except that it is missing 2 nucleotides such that the mir-143 miRNA is presumed to adopt a bulged structure when it hybridizes to this target sequence. The pGL3-GLO1 reporter plasmid contains a DNA fragment comprising the 3′-UTR of the GLO1 sequence; this fragment was PCR-amplified using a primer beginning at nucleotide number 621 of the GLO1 sequence (GenBank Accession NM_006708.1, SEQ ID NO: 821) and the downstream primer hybridizing to the poly A tail. The pGL3-PP2A reporter plasmid contains a DNA fragment comprising the 3′-UTR of the PP2A gene; this fragment was PCR-amplified using a primer beginning at nucleotide number 921 of the PP2A sequence (GenBank Accession NM_004156.1) and the downstream primer hybridizing to the poly A tail. The reporter plasmid pGL3-ERK5-3′-UTR(×1) contains one copy of the sequence […] (herein incorporated as SEQ ID NO: 875), found in the 3′-UTR of ERK5 and predicted by Lewis, et al. to be bound by the mir-143 miRNA, and the reporter plasmid pGL3-ERK5-3′UTR(×3) has three contiguous copies of this sequence. The reporter plasmid pGL3-ERK5-3′UTR(ext) contains one copy of the sequence […] (herein incorporated as SEQ ID NO: 876), which includes an additional ten nucleotides at either end of the mir-143 binding site in 3′-UTR of ERK5 predicted by Lewis, et al. (Lewis et al., Cell, 2003, 115, 787-798). The plasmids pGL3-ERK5-cds(×1), pGL3-ERK5-cds(×2), pGL3-ERK5-cds(×3), and pGL3-ERK5-cds(×5) contain one, two, three or five contiguous copies, respectively, of the novel mir-143 binding site ([…]; herein incorporated as SEQ ID NO: 877) we identified within the coding sequence of ERK5. The unmodified pGL3-Control luciferase reporter vector was used as a negative control, and the pGL3-mir-143 sensor reporter plasmid was used as a positive control.
(§3) HeLa cells were routinely cultured and passaged as described. In some embodiments, HeLa cells were transfected with 0.05 μg of the relevant pGL3-sensor plasmid and 0.01 μg pRL-CMV plasmid. Additionally, in some embodiments, cells were treated at various dosages (11 nM, 33 nM, and 100 nM) with the following oligomeric compound mimics: 1) ds-mir-143, or 2) ds-Control as described. In accordance with methods described in Example 12, a luciferase assay was performed 24-hours after transfection. The results, shown in Tables 40 and 41, are an average of three trials. Data are presented as percent untreated control (luciferase plasmid only, not treated with oligomeric compound) luciferase expression, normalized to pRL-CMV levels.

[2] = test system: mir-143 binding site within the coding sequence of ERK5; test: pGL3-ERK5-cds luciferase assays in HeLa cells; format: cell-based, human; conditions: for luciferase expression: HeLa cells, 24 hours
Method: as §1, §2, §3

## ds-mir-143: double-stranded RNA of ISIS 342199 hybridized to its perfect complement ISIS 342200 (sense UGAGAUGAAGCACUGUAGCUCA; antisense UGAGCUACAGUGCUUCAUCUCA; RNA, backbone not given here)
[1]; HeLa, 11, 33 and 100 nM
  luciferase activity from pGL3-ERK5-3′UTR(×1): did not inhibit luciferase activity
  luciferase activity from pGL3-ERK5-3′UTR(×3): inhibition of luciferase activity
[1]; Table 40, pGL3-ERK5-3′UTR(x1), 11 nM
  luciferase expression: 81.9 percent untreated control
[1]; Table 40, pGL3-ERK5-3′UTR(x1), 33 nM
  luciferase expression: 84.7 percent untreated control
[1]; Table 40, pGL3-ERK5-3′UTR(x1), 100 nM
  luciferase expression: 62.2 percent untreated control
[1]; Table 41, pGL3-ERK5-3′UTR(ext), 11 nM
  luciferase expression: 89.0 percent untreated control
[1]; Table 41, pGL3-ERK5-3′UTR(ext), 33 nM
  luciferase expression: 106.7 percent untreated control
[1]; Table 41, pGL3-ERK5-3′UTR(ext), 100 nM
  luciferase expression: 81.4 percent untreated control
[1]; Table 41, pGL3-ERK5-3′UTR(x1), 11 nM
  luciferase expression: 92.2 percent untreated control
[1]; Table 41, pGL3-ERK5-3′UTR(x1), 33 nM
  luciferase expression: 108.1 percent untreated control
[1]; Table 41, pGL3-ERK5-3′UTR(x1), 100 nM
  luciferase expression: 81.9 percent untreated control
[1]; Table 41, pGL3-ERK5-3′UTR(x3), 11 nM
  luciferase expression: 51.7 percent untreated control
[1]; Table 41, pGL3-ERK5-3′UTR(x3), 33 nM
  luciferase expression: 51.0 percent untreated control
[1]; Table 41, pGL3-ERK5-3′UTR(x3), 100 nM
  luciferase expression: 28.2 percent untreated control
[2]; HeLa, 100 nM
  luciferase expression from pGL3-ERK5-cds(×1) or pGL3-ERK5-cds(×2): did reduce luciferase expression
[2]; HeLa, 11, 33 and 100 nM
  luciferase activity from pGL3-ERK5-cds(×3) or pGL3-ERK5-cds(×5): reduction in luciferase activity
  luciferase activity from pGL3-ERK5-cds(×5), dose response: dose-responsiveness
[2]; HeLa, 11- or 33 nM
  luciferase activity from pGL3-ERK5-cds(×1) or pGL3-ERK5-cds(×2): did not appear to inhibit luciferase activity
[2]; Table 41, pGL3-ERK5-cds(x1), 11 nM
  luciferase expression: 101.3 percent untreated control
[2]; Table 41, pGL3-ERK5-cds(x1), 33 nM
  luciferase expression: 115.4 percent untreated control
[2]; Table 41, pGL3-ERK5-cds(x1), 100 nM
  luciferase expression: 77.4 percent untreated control
[2]; Table 41, pGL3-ERK5-cds(x2), 11 nM
  luciferase expression: 92.7 percent untreated control
[2]; Table 41, pGL3-ERK5-cds(x2), 33 nM
  luciferase expression: 113.8 percent untreated control
[2]; Table 41, pGL3-ERK5-cds(x2), 100 nM
  luciferase expression: 63.6 percent untreated control
[2]; Table 41, pGL3-ERK5-cds(x3), 11 nM
  luciferase expression: 73.5 percent untreated control
[2]; Table 41, pGL3-ERK5-cds(x3), 33 nM
  luciferase expression: 77.9 percent untreated control
[2]; Table 41, pGL3-ERK5-cds(x3), 100 nM
  luciferase expression: 49.4 percent untreated control
[2]; Table 41, pGL3-ERK5-cds(x5), 11 nM
  luciferase expression: 49.4 percent untreated control
[2]; Table 41, pGL3-ERK5-cds(x5), 33 nM
  luciferase expression: 44.5 percent untreated control
[2]; Table 41, pGL3-ERK5-cds(x5), 100 nM
  luciferase expression: 23.9 percent untreated control
